Like-named read-outs stand apart in the source and are kept apart here.
Assay: in vivo
Design: species or system SD rats
Conditions: male, SD, rat, plasma; for AUC: read-out: Area Under Curve AUC; for clearance: read-out: Clearance Rate Cl; for C0: read-out: Initial Concentration C0; for Vd: read-out: Volume of Distribution Vd; for bioavailability: read-out: Bioavailability F; for Cmax: read-out: Peak Concentration Cmax
[1] = iv, 0.2 mg/kg, read-out: Half-life T1/2 (converted)
[2] = po, 1 mg/kg, read-out: Peak Concentration Time T1/2 (converted)

With `C[C@H](NC1=CC(=O)C2(CCCC2)C(=O)N1)c1ccccc1` [Compound 3] as the compound, how does the AUC (iv, 0.2 mg/kg) read?
The AUC was 1.33 µM·h.

What about the clearance (iv, 0.2 mg/kg) of the same compound?
Its clearance is 8.11 mL/min/kg.

What about the half-life [1] of the same compound?
The half-life was 2.31 h.

What about the C0 (iv, 0.2 mg/kg) of the same compound?
The C0 was 773 nM.

What about the Vd (iv, 0.2 mg/kg) of the same compound?
The Vd was 1.6 L/kg.

What about the AUC (po, 1 mg/kg) of the same compound?
Its AUC is 7.32 µM·h.

What about the bioavailability (po, 1 mg/kg) of the same compound?
The bioavailability was 110%.

What about the Cmax (po, 1 mg/kg) of the same compound?
The Cmax was 1380 nM.

What about the half-life [2] of the same compound?
The half-life was 4.81 h.

With `C[C@H](NC1=CC(=O)C2(CCCC2)C(=O)N1)c1cccc(Cl)c1` [Compound 7] as the compound, how does the AUC (iv, 0.2 mg/kg) read?
Its AUC is 3.53 µM·h.

What about the clearance (iv, 0.2 mg/kg) of the same compound?
Its clearance is 2.93 mL/min/kg.

What about the half-life [1] of the same compound?
The half-life was 3.86 h.

What about the C0 (iv, 0.2 mg/kg) of the same compound?
The C0 was 3700 nM.

And the Vd (iv, 0.2 mg/kg)?
Its Vd is 0.885 L/kg.

What about the AUC (po, 1 mg/kg) of the same compound?
The AUC was 14.8 µM·h.

What about the bioavailability (po, 1 mg/kg) of the same compound?
Its bioavailability is 88.1%.

What about the Cmax (po, 1 mg/kg) of the same compound?
The Cmax was 2140 nM.

And the half-life [2]?
Its half-life is 5.96 h.

What does the source list for `Cc1ccc(F)c([C@H](C)NC2=CC(=O)C3(CCCC3)C(=O)N2)c1` [Compound 9]?
AUC (iv, 0.2 mg/kg): 2.11 µM·h; clearance (iv, 0.2 mg/kg): 4.78 mL/min/kg; half-life [1]: 5.93 h; C0 (iv, 0.2 mg/kg): 4820 nM; Vd (iv, 0.2 mg/kg): 1.73 L/kg; AUC (po, 1 mg/kg): 8.11 µM·h; bioavailability (po, 1 mg/kg): 76.7%; Cmax (po, 1 mg/kg): 1940 nM; half-life [2]: 7.35 h

With `C[C@H](NC1=CC(=O)C2(CCCC2)C(=O)N1)c1cc(F)ccc1F` [Compound 10] as the compound, how does the AUC (intravenous, 0.2 mg/kg) read?
Its AUC is 1.29 µM·h.

What about the clearance (intravenous, 0.2 mg/kg) of the same compound?
The clearance was 6 mL/min/kg.

And the half-life (intravenous, 0.2 mg/kg, read-out: Half-life T1/2 (converted))?
The half-life was 6.37 h.

What about the C0 (intravenous, 0.2 mg/kg) of the same compound?
The C0 was 1460 nM.

What about the Vd (intravenous, 0.2 mg/kg) of the same compound?
Its Vd is 2.7 L/kg.

What about the AUC (po, 1 mg/kg) of the same compound?
The AUC was 7.93 µM·h.

And the Cmax (po, 1 mg/kg)?
Its Cmax is 1310 nM.

What about the half-life [2] of the same compound?
Its half-life is 4.83 h.

— patent publication US20240189292A1 (priority 2021, published 2024)
